Here are results for 19 compounds from ChEMBL document CHEMBL4680217, “Discovery of PROTAC BCL-X degraders as potent anticancer agents with low on-target platelet toxicity” (Eur J Med Chem, 2020).

One assay has as its system MOLT-4. The assay can be described thus: Antiproliferative activity against human MOLT-4 cells assessed as reduction in cell viability measured after 48 hrs by MTS assay. The class given is functional, cell-based. As to conditions: MOLT-4, 48 h. For orientation: Tetrazolium assays rely on reduction of a dye to a coloured formazan, in cell work by metabolically active cells.

The target of assay [1] is Protein cereblon/Bcl-2-like protein 1 (Homo sapiens, UniProt Q07817+Q96SW2). Kind of assay: Protac activity at CRBN/BCL-XL in human MOLT-4 cells assessed as induction of BCL-XL degradation by measuring remaining BCL-XL level at 50 nM measured after 16 hrs by immunoblotting analysis relative to control. The class given is cell-based.
Assay [2] has as its target Protein cereblon/Apoptosis regulator Bcl-2 (Homo sapiens) (UniProt P10415+Q96SW2). Kind of assay: Protac activity at CRBN/BCL2 in human MOLT-4 cells assessed as induction of BCL2 degradation at 50 nM measured after 16 hrs by immunoblotting analysis. The class given is cell-based.

pIC50: −log10 of the molar value. Calls of active or inactive are those of the source. The rule behind the calls is not given here. Some results are limits rather than exact numbers.

Sequence of Protein cereblon/Bcl-2-like protein 1 (Q07817 whole entry, looked up): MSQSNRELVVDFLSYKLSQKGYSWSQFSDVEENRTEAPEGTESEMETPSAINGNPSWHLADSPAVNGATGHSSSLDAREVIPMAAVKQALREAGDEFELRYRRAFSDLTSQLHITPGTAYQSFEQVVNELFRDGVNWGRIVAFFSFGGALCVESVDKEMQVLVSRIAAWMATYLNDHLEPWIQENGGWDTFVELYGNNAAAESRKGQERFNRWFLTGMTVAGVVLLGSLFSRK
Sequence of Protein cereblon/Bcl-2-like protein 1 (Q96SW2 whole entry, looked up): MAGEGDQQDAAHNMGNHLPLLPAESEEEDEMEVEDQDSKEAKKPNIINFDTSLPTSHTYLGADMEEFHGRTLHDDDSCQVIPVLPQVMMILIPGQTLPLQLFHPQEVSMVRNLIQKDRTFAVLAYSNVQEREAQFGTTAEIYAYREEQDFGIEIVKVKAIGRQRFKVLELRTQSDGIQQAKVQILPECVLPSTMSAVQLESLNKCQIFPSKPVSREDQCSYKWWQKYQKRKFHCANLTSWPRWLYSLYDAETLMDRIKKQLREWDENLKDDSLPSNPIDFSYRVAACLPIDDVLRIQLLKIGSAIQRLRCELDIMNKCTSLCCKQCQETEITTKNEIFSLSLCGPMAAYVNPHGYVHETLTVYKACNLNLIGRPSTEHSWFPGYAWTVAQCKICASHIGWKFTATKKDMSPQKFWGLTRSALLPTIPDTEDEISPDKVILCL
Sequence of Protein cereblon/Apoptosis regulator Bcl-2 (Homo sapiens) (P10415 whole entry, looked up): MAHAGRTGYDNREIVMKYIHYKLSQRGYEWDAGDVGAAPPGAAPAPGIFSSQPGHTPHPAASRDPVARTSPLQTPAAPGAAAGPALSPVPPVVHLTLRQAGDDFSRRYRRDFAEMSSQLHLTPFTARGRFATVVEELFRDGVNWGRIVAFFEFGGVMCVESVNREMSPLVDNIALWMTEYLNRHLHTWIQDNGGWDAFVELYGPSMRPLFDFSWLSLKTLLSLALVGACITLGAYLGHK
Sequence of Protein cereblon/Apoptosis regulator Bcl-2 (Homo sapiens) (Q96SW2 whole entry, looked up): as the sequence (Q96SW2 whole entry, looked up) above

Broadly, the pIC50 is −log10 of the IC50, conventionally taken in molar units. In the case of `CN(CCCCCCNc1cccc2c1C(=O)N([C@@H]1CCC(=O)NC1=O)C2=O)CC[C@H](CSc1ccccc1)Nc1ccc(S(=O)(=O)NC(=O)c2ccc(N3CCN(CC4=C(c5ccc(Cl)cc5)CCC(C)(C)C4)CC3)cc2)cc1S(=O)(=O)C(F)(F)F`, the pIC50 in the assay on MOLT-4 was 6.83. The Activity in assay [1] worked out at 73%. Also, the result in assay [2] was inactive.
For `CN(CC[C@H](CSc1ccccc1)Nc1ccc(S(=O)(=O)NC(=O)c2ccc(N3CCN(CC4=C(c5ccc(Cl)cc5)CCC(C)(C)C4)CC3)cc2)cc1S(=O)(=O)C(F)(F)F)C(=O)CCCn1cc(COCCOCCNc2cccc3c2C(=O)N([C@@H]2CCC(=O)NC2=O)C3=O)nn1`, in that order: 6.11, 66% and “inactive”.
For the compound `CC1(C)CCC(c2ccc(Cl)cc2)=C(CN2CCN(c3ccc(C(=O)NS(=O)(=O)c4ccc(N[C@H](CCN5CCN(CCCCCNc6cccc7c6C(=O)N([C@@H]6CCC(=O)NC6=O)C7=O)CC5)CSc5ccccc5)c(S(=O)(=O)C(F)(F)F)c4)cc3)CC2)C1`, the pIC50 with MOLT-4 is 7.00. In addition, the Activity in assay [1] worked out at 45%. Also, the result in assay [2] was inactive.
As for `CN(CCCCCCCn1cc(COCCOCCOCCNc2cccc3c2C(=O)N([C@@H]2CCC(=O)NC2=O)C3=O)nn1)CC[C@H](CSc1ccccc1)Nc1ccc(S(=O)(=O)NC(=O)c2ccc(N3CCN(CC4=C(c5ccc(Cl)cc5)CCC(C)(C)C4)CC3)cc2)cc1S(=O)(=O)C(F)(F)F`, the Activity in assay [1] is 24%. Further, the result in assay [2] was inactive.
Take `CC1(C)CCC(c2ccc(Cl)cc2)=C(CN2CCN(c3ccc(C(=O)NS(=O)(=O)c4ccc(N[C@H](CCN5CCN(C(=O)COCCOCCOCCOCCNc6cccc7c6C(=O)N([C@@H]6CCC(=O)NC6=O)C7=O)CC5)CSc5ccccc5)c(S(=O)(=O)C(F)(F)F)c4)cc3)CC2)C1`: the pIC50 in the assay with MOLT-4 was 6.90. Besides, in assay [1], the Activity came out at 11%. In addition, in assay [2], the outcome was inactive.
As for `CN(CCCCCCCCNc1cccc2c1C(=O)N([C@@H]1CCC(=O)NC1=O)C2=O)CC[C@H](CSc1ccccc1)Nc1ccc(S(=O)(=O)NC(=O)c2ccc(N3CCN(CC4=C(c5ccc(Cl)cc5)CCC(C)(C)C4)CC3)cc2)cc1S(=O)(=O)C(F)(F)F`, the pIC50 in the assay with MOLT-4 is < 5.70. The Activity in assay [1] worked out at 94%. Besides, the outcome in assay [2] was inactive.
In the case of `CN(CCOCCOCCOCCOCCNc1cccc2c1C(=O)N([C@@H]1CCC(=O)NC1=O)C2=O)CC[C@H](CSc1ccccc1)Nc1ccc(S(=O)(=O)NC(=O)c2ccc(N3CCN(CC4=C(c5ccc(Cl)cc5)CCC(C)(C)C4)CC3)cc2)cc1S(=O)(=O)C(F)(F)F`, in the assay with MOLT-4, the pIC50 was 7.71. In assay [1], the Activity is 5%. Also, the result in assay [2] was inactive.
For `CC1(C)CCC(c2ccc(Cl)cc2)=C(CN2CCN(c3ccc(C(=O)NS(=O)(=O)c4ccc(N[C@H](CCN5CCN(C(=O)COCCOCCNc6cccc7c6C(=O)N([C@@H]6CCC(=O)NC6=O)C7=O)CC5)CSc5ccccc5)c(S(=O)(=O)C(F)(F)F)c4)cc3)CC2)C1`, in that order: 6.79, 20% and “inactive”.
Regarding `CC1(C)CCC(c2ccc(Cl)cc2)=C(CN2CCN(c3ccc(C(=O)NS(=O)(=O)c4ccc(N[C@H](CCN5CCN(CCCCNc6cccc7c6C(=O)N([C@@H]6CCC(=O)NC6=O)C7=O)CC5)CSc5ccccc5)c(S(=O)(=O)C(F)(F)F)c4)cc3)CC2)C1`, the pIC50 with MOLT-4 is 7.37. Moreover, the Activity in assay [1] amounted to 20%. Also, the outcome in assay [2] was inactive.
Take `CC1(C)CCC(c2ccc(Cl)cc2)=C(CN2CCN(c3ccc(C(=O)NS(=O)(=O)c4ccc(N[C@H](CCN5CCN(C(=O)COCCOCCOCCNc6cccc7c6C(=O)N([C@@H]6CCC(=O)NC6=O)C7=O)CC5)CSc5ccccc5)c(S(=O)(=O)C(F)(F)F)c4)cc3)CC2)C1`: in the assay on MOLT-4, the pIC50 was 6.68. In addition, the Activity in assay [1] is 21%. Further, in assay [2], the result was inactive.
Consider `CN(CCOCCOCCNc1cccc2c1C(=O)N([C@@H]1CCC(=O)NC1=O)C2=O)CC[C@H](CSc1ccccc1)Nc1ccc(S(=O)(=O)NC(=O)c2ccc(N3CCN(CC4=C(c5ccc(Cl)cc5)CCC(C)(C)C4)CC3)cc2)cc1S(=O)(=O)C(F)(F)F`, for which the pIC50 in the assay on MOLT-4 was 7.46. For the same compound, in assay [1], the Activity was 11%. Moreover, the result in assay [2] was inactive.
As for `CN(CC[C@H](CSc1ccccc1)Nc1ccc(S(=O)(=O)NC(=O)c2ccc(N3CCN(CC4=C(c5ccc(Cl)cc5)CCC(C)(C)C4)CC3)cc2)cc1S(=O)(=O)C(F)(F)F)C(=O)CCCCCCn1cc(COCCOCCNc2cccc3c2C(=O)N([C@@H]2CCC(=O)NC2=O)C3=O)nn1`, the pIC50 in the assay with MOLT-4 is 6.75. In addition, the Activity in assay [1] was determined as 28%. The result in assay [2] was inactive.
For `CC1(C)CCC(c2ccc(Cl)cc2)=C(CN2CCN(c3ccc(C(=O)NS(=O)(=O)c4ccc(N[C@H](CCN5CCN(C(=O)NCCOCCOCCNc6cccc7c6C(=O)N([C@@H]6CCC(=O)NC6=O)C7=O)CC5)CSc5ccccc5)c(S(=O)(=O)C(F)(F)F)c4)cc3)CC2)C1`, in that order: 6.93, 27% and “inactive”.
For `CN(CC[C@H](CSc1ccccc1)Nc1ccc(S(=O)(=O)NC(=O)c2ccc(N3CCN(CC4=C(c5ccc(Cl)cc5)CCC(C)(C)C4)CC3)cc2)cc1S(=O)(=O)C(F)(F)F)C(=O)CCCCCCn1cc(COCCOCCOCCNc2cccc3c2C(=O)N([C@@H]2CCC(=O)NC2=O)C3=O)nn1`, in that order: 6.75, 29% and “inactive”.
In the case of `CC1(C)CCC(c2ccc(Cl)cc2)=C(CN2CCN(c3ccc(C(=O)NS(=O)(=O)c4ccc(N[C@H](CCN5CCN(C(=S)NCCOCCOCCNc6cccc7c6C(=O)N([C@@H]6CCC(=O)NC6=O)C7=O)CC5)CSc5ccccc5)c(S(=O)(=O)C(F)(F)F)c4)cc3)CC2)C1` (racemic), the pIC50 with MOLT-4 is 6.14. Further, the Activity in assay [1] amounted to 76%. The result in assay [2] was inactive.
Consider `CC1(C)CCC(c2ccc(Cl)cc2)=C(CN2CCN(c3ccc(C(=O)NS(=O)(=O)c4ccc(N[C@H](CCN5CCN(C(=O)CCCNc6cccc7c6C(=O)N([C@@H]6CCC(=O)NC6=O)C7=O)CC5)CSc5ccccc5)c(S(=O)(=O)C(F)(F)F)c4)cc3)CC2)C1`, for which, in assay [1], the Activity came to 44%. Besides, the outcome in assay [2] was inactive.
Regarding `CC1(C)CCC(c2ccc(Cl)cc2)=C(CN2CCN(c3ccc(C(=O)NS(=O)(=O)c4ccc(N[C@H](CCN5CCN(CCOCCOCCNc6cccc7c6C(=O)N([C@@H]6CCC(=O)NC6=O)C7=O)CC5)CSc5ccccc5)c(S(=O)(=O)C(F)(F)F)c4)cc3)CC2)C1`, the pIC50 in the assay with MOLT-4 is 7.38. The Activity in assay [1] amounted to 13%. In addition, in assay [2], the outcome was inactive.
For `CN(CCCCNc1cccc2c1C(=O)N([C@@H]1CCC(=O)NC1=O)C2=O)CC[C@H](CSc1ccccc1)Nc1ccc(S(=O)(=O)NC(=O)c2ccc(N3CCN(CC4=C(c5ccc(Cl)cc5)CCC(C)(C)C4)CC3)cc2)cc1S(=O)(=O)C(F)(F)F`, the pIC50 in the assay with MOLT-4 is 7.41. For the same compound, the Activity in assay [1] is 40%. For the same compound, in assay [2], the result was inactive.
Consider `CC1(C)CCC(c2ccc(Cl)cc2)=C(CN2CCN(c3ccc(C(=O)NS(=O)(=O)c4ccc(N[C@H](CCN5CCN(CCCNc6cccc7c6C(=O)N([C@@H]6CCC(=O)NC6=O)C7=O)CC5)CSc5ccccc5)c(S(=O)(=O)C(F)(F)F)c4)cc3)CC2)C1` (mixture of isomers), for which the Activity in assay [1] amounted to 30%. In addition, the result in assay [2] was inactive.
